“And” between values parts separate entries of the source, which are not always exact repeats. Identical values can stand only once. Toxic doses and inconclusive results are not listed.
System: L1210 leukemia ip in BDF1 mice, survival T/C
Assay: NCI In Vivo Anticancer Drug Screen. Data for tumor model L1210 Leukemia (intraperitoneal) in B6D2F1 (BDF1) mice
Details: endpoint: mean survival time, higher = longer survival
In short: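 Each compound was tested against a transplantable tumor grown in mice. The endpoint was survival, with treated animals benchmarked against vehicle controls as a simple ratio.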

[1] = dose: 100.0 mg/kg/injection, schedule: Q04DX003 (ip), vehicle: Klucel (hydroxypropylcellulose) (HPC)
[2] = dose: 200.0 mg/kg/injection, schedule: Q04DX003 (ip), vehicle: Klucel (hydroxypropylcellulose) (HPC)
[3] = dose: 100.0 mg/kg/injection, schedule: Q01DX009 (ip), vehicle: saline
[4] = dose: 200.0 mg/kg/injection, schedule: Q01DX009 (ip), vehicle: saline
[5] = dose: 100.0 mg/kg/injection, schedule: Q01DX001 (ip), vehicle: carboxymethylcellulose (CMC)
[6] = dose: 200.0 mg/kg/injection, schedule: Q01DX001 (ip), vehicle: carboxymethylcellulose (CMC)
[7] = dose: 400.0 mg/kg/injection, schedule: Q01DX001 (ip), vehicle: carboxymethylcellulose (CMC)
[8] = dose: 100.0 mg/kg/injection, schedule: Q04DX003 (ip), vehicle: saline with Tween-80
[9] = dose: 200.0 mg/kg/injection, schedule: Q04DX003 (ip), vehicle: saline with Tween-80
[10] = dose: 400.0 mg/kg/injection, schedule: Q04DX003 (ip), vehicle: saline with Tween-80
[11] = dose: 100.0 mg/kg/injection, schedule: Q01DX001 (ip), vehicle: saline
[12] = dose: 200.0 mg/kg/injection, schedule: Q01DX001 (ip), vehicle: saline
[13] = dose: 400.0 mg/kg/injection, schedule: Q01DX001 (ip), vehicle: saline

In the case of `Nc1ccc(Cc2ccc(N)c(Cl)c2)cc1Cl`, the T/C [1] is reported as 100 % of control, the T/C [2] is reported as 91 % of control and the T/C (dose: 400.0 mg/kg/injection, schedule: Q04DX003 (ip), vehicle: Klucel (hydroxypropylcellulose) (HPC)) is reported as 100 % of control.

In the case of `Nc1nc(N)c2nc3c(nc2n1)CN(c1ccc(C(=O)O)cc1)C3=O`, the T/C [3] is reported as 104 % of control and the T/C [4] is reported as 89 % of control.

With `CC(C)Cn1cnc2c(Sc3c([N+](=O)[O-])ncn3C)nc(N)nc21` the T/C (dose: 6.0 mg/kg/injection, schedule: Q01DX015 (ip), vehicle: carboxymethylcellulose (CMC)) was 104 % of control, the T/C (dose: 12.0 mg/kg/injection, schedule: Q01DX015 (ip), vehicle: carboxymethylcellulose (CMC)) was 111 % of control and the T/C (dose: 25.0 mg/kg/injection, schedule: Q01DX015 (ip), vehicle: carboxymethylcellulose (CMC)) was 117 % of control. The T/C (dose: 50.0 mg/kg/injection, schedule: Q01DX001 (ip), vehicle: carboxymethylcellulose (CMC)) was 114 % of control, the T/C [5] was 117 % of control and the T/C [6] was 119 % of control. The T/C [7] was 162 % of control and the T/C (dose: 600.0 mg/kg/injection, schedule: Q01DX001 (ip), vehicle: carboxymethylcellulose (CMC)) was 170 % of control.

For `O=C(Cl)c1ccc(N2C(=O)c3ccccc3C2=O)cc1[N+](=O)[O-]`, the T/C (dose: 100.0 mg/kg/injection, schedule: Q01DX009 (ip), vehicle: saline with Tween-80) was 98 % of control, the T/C [8] was 102 % of control and the T/C (dose: 200.0 mg/kg/injection, schedule: Q01DX009 (ip), vehicle: saline with Tween-80) was 97 % of control. For the same compound, the T/C [9] was 98 % of control, the T/C (dose: 400.0 mg/kg/injection, schedule: Q01DX009 (ip), vehicle: saline with Tween-80) was 106 % of control and the T/C [10] was 100 % of control.

In the case of `COC(=O)c1cc(C)ccc1C`, the T/C [11] is reported as 101 % of control, the T/C [12] is reported as 98 % of control and the T/C [13] is reported as 101 % of control.

In the case of `CCN(CC)CCC(=O)OC(c1ccccc1)C1(O)CCSC1` (stereo not drawn), the T/C [1] is reported as 106 % of control and the T/C [2] is reported as 96 % of control.

For `CCOC(=O)C(CC(C)C)NC(=O)C(Cc1ccc(N(CCCl)CCCl)cc1)NC(C)=O` (stereo not drawn), the T/C (dose: 1.0 mg/kg/injection, schedule: Q01DX009 (ip), vehicle: other) was 108 % of control, the T/C (dose: 2.0 mg/kg/injection, schedule: Q01DX009 (ip), vehicle: other) was 108 % of control and the T/C (dose: 4.0 mg/kg/injection, schedule: Q01DX009 (ip), vehicle: other) was 120 % of control. For the same compound, the T/C (dose: 8.0 mg/kg/injection, schedule: Q01DX009 (ip), vehicle: other) was 119 % of control, the T/C (dose: 16.0 mg/kg/injection, schedule: Q01DX009 (ip), vehicle: other) was 109 % of control and the T/C (dose: 32.0 mg/kg/injection, schedule: Q01DX009 (ip), vehicle: other) was 116 % of control. For the same compound, the T/C (dose: 62.5 mg/kg/injection, schedule: Q01DX001 (oral), vehicle: alcohol) was 102 % of control, the T/C (dose: 66.0 mg/kg/injection, schedule: Q01DX001 (ip), vehicle: olive oil, sesame oil, peanut oil) was 108 % of control and the T/C (dose: 100.0 mg/kg/injection, schedule: Q01DX001 (ip), vehicle: olive oil, sesame oil, peanut oil) was 110 % of control. For the same compound, the T/C (dose: 125.0 mg/kg/injection, schedule: Q01DX001 (oral), vehicle: alcohol) was 101 % of control, the T/C (dose: 250.0 mg/kg/injection, schedule: Q01DX001 (oral), vehicle: alcohol) was 104 % of control and the T/C (dose: 250.0 mg/kg/injection, schedule: Q01DX001 (oral), vehicle: olive oil, sesame oil, peanut oil) was 113 % of control. The T/C (dose: 500.0 mg/kg/injection, schedule: Q01DX001 (oral), vehicle: alcohol) was 113 % of control.

For `O=C(Nc1cccc(C2=NCCCN2)c1)c1ccc(C(=O)Nc2cccc(C3=NCCCN3)c2)cc1`, the T/C (dose: 0.1 mg/kg/injection, schedule: Q01DX Z (ip), vehicle: saline) was 95 % of control, the T/C (dose: 0.2 mg/kg/injection, schedule: Q01DX Z (ip), vehicle: saline) was 100 % of control and the T/C (dose: 0.3 mg/kg/injection, schedule: Q01DX Z (ip), vehicle: saline) was 97 % of control. For the same compound, the T/C (dose: 0.5 mg/kg/injection, schedule: Q01DX Z (ip), vehicle: saline) was 97 % of control.

With `C[N+]([O-])(CCC#N)CC(=O)O` (stereo not drawn) the T/C [11] was 97 % of control and the T/C [12] was 101 % of control.

In the case of `CCOC1OC(C(O)CO)C(O)C1O` (stereo not drawn), the T/C [8] is reported as 98 % of control, the T/C [9] is reported as 98 % of control and the T/C [10] is reported as 96 % of control.

In the case of `CCCCC(C#N)C1CC=CC(C(=O)O)C1` (stereo not drawn), the T/C [5] is reported as 101 % of control, the T/C [6] is reported as 92 % of control and the T/C [7] is reported as 97 % of control.

For `O=C1CCSCCN1`, the T/C [3] was 98 % of control, the T/C (dose: 100.0 mg/kg/injection, schedule: Q04DX003 (ip), vehicle: saline) was 97 % of control and the T/C [4] was 103 % of control. The T/C (dose: 200.0 mg/kg/injection, schedule: Q04DX003 (ip), vehicle: saline) was 97 % of control, the T/C (dose: 400.0 mg/kg/injection, schedule: Q01DX009 (ip), vehicle: saline) was 101 % of control and the T/C (dose: 400.0 mg/kg/injection, schedule: Q04DX003 (ip), vehicle: saline) was 95 % of control.

In the case of `CCNC(=O)c1csnn1`, the T/C (dose: 75.0 mg/kg/injection, schedule: Q01DX001 (ip), vehicle: other) is reported as 98 % of control, the T/C (dose: 150.0 mg/kg/injection, schedule: Q01DX001 (ip), vehicle: other) is reported as 101 % of control and the T/C (dose: 300.0 mg/kg/injection, schedule: Q01DX001 (ip), vehicle: other) is reported as 104 % of control.

`CCC(CC)NC(C)CO` (stereo not drawn) was tested, and the T/C (dose: 75.0 mg/kg/injection, schedule: Q01DX001 (ip), vehicle: acid diluted with saline) was 105 % of control, the T/C (dose: 150.0 mg/kg/injection, schedule: Q01DX001 (ip), vehicle: acid diluted with saline) was 103 % of control and the T/C (dose: 300.0 mg/kg/injection, schedule: Q01DX001 (ip), vehicle: acid diluted with saline) was 103 % of control.

In the case of `O=C(O)c1ccc(Br)c2ccccc12`, the T/C (dose: 75.0 mg/kg/injection, schedule: Q01DX001 (ip), vehicle: carboxymethylcellulose (CMC)) is reported as 95 % of control and the T/C (dose: 150.0 mg/kg/injection, schedule: Q01DX001 (ip), vehicle: carboxymethylcellulose (CMC)) is reported as 98 % of control.

For `O=S(=O)(O)c1ccc2c(ccc3ccccc32)c1`, the T/C (dose: 75.0 mg/kg/injection, schedule: Q01DX001 (ip), vehicle: saline) was 96 % of control.

For `CCOc1ccc(Nc2cccc3ccccc23)cc1`, the T/C (dose: 100.0 mg/kg/injection, schedule: Q04DX002 (ip), vehicle: Klucel (hydroxypropylcellulose) (HPC)) was 94 % of control, the T/C (dose: 200.0 mg/kg/injection, schedule: Q04DX002 (ip), vehicle: Klucel (hydroxypropylcellulose) (HPC)) was 88 % of control and the T/C (dose: 400.0 mg/kg/injection, schedule: Q04DX002 (ip), vehicle: Klucel (hydroxypropylcellulose) (HPC)) was 98 % of control.

In the case of `CCCCCCCCCCCCCC(=O)N(CCC)CCC`, the T/C [5] is reported as 96 % of control, the T/C (dose: 100.0 mg/kg/injection, schedule: Q01DX009 (ip), vehicle: carboxymethylcellulose (CMC)) is reported as 94 % of control and 110 % of control and the T/C (dose: 100.0 mg/kg/injection, schedule: Q04DX003 (ip), vehicle: carboxymethylcellulose (CMC)) is reported as 95 % of control. The T/C [6] was 93 % of control, the T/C (dose: 200.0 mg/kg/injection, schedule: Q01DX009 (ip), vehicle: carboxymethylcellulose (CMC)) was 98 % of control and 103 % of control and the T/C (dose: 200.0 mg/kg/injection, schedule: Q04DX003 (ip), vehicle: carboxymethylcellulose (CMC)) was 95 % of control. The T/C [7] was 91 % of control and the T/C (dose: 400.0 mg/kg/injection, schedule: Q04DX003 (ip), vehicle: carboxymethylcellulose (CMC)) was 93 % of control.

For `O=Nc1c2cc3ccccc3[nH]c-2c2ccccc12`, the T/C (dose: 50.0 mg/kg/injection, schedule: Q01DX001 (ip), vehicle: Klucel (hydroxypropylcellulose) (HPC)) was 95 % of control, the T/C (dose: 100.0 mg/kg/injection, schedule: Q01DX001 (ip), vehicle: Klucel (hydroxypropylcellulose) (HPC)) was 93 % of control and the T/C (dose: 200.0 mg/kg/injection, schedule: Q01DX001 (ip), vehicle: Klucel (hydroxypropylcellulose) (HPC)) was 93 % of control.

In the case of `CCCCCCCC/C=C\CCCCCCCCN1CC(C(=O)[O][Pb]([CH2]C)([CH2]C)[CH2]C)CC1=O` (stereo not drawn), the T/C (dose: 1.5 mg/kg/injection, schedule: Q01DX009 (ip), vehicle: saline with Tween-80) is reported as 100 % of control, the T/C (dose: 3.0 mg/kg/injection, schedule: Q01DX009 (ip), vehicle: saline with Tween-80) is reported as 101 % of control and the T/C (dose: 6.0 mg/kg/injection, schedule: Q01DX009 (ip), vehicle: saline with Tween-80) is reported as 100 % of control. The T/C (dose: 6.25 mg/kg/injection, schedule: Q01DX009 (ip), vehicle: saline with Tween-80) was 94 % of control, the T/C (dose: 12.5 mg/kg/injection, schedule: Q04DX002 (ip), vehicle: saline with Tween-80) was 108 % of control and the T/C (dose: 25.0 mg/kg/injection, schedule: Q04DX002 (ip), vehicle: saline with Tween-80) was 105 % of control.

For `Cc1ncc(CO)c2c1OC(C)(C)OC2`, the T/C (dose: 50.0 mg/kg/injection, schedule: Q01DX001 (ip), vehicle: saline) was 97 % of control, the T/C [11] was 100 % of control and the T/C [12] was 103 % of control. For the same compound, the T/C [13] was 100 % of control.

Reference: PubChem BioAssay AID248 (DTP/NCI, 2004)
